According to article PMC9386018, “A lymphatic-absorbed multi-targeted kinase inhibitor for myelofibrosis therapy” (Nature Communications, 2022):
Where “and” joins values, the source holds several entries; their conditions need not be identical. Equal entries are not always repeated.

Assay: Pharmacokinetic analysis of plasma after intravenous and oral dosing

In the case of `O=C(O)CCOCCOCCOCCONC(=O)c1ccc(F)c(F)c1Nc1ccc(I)cc1F` [LP-622, 1-(3,4-difluoro-2-((2-fluoro-4-iodophenyl)amino)phenyl)-1-oxo-3,6,9,12-tetraoxa-2-azapentadecan-15-oic acid], the Concentration (Supplementary Figure 6a, i.v., Time 0.167 h, individual replicates) is reported as 6.65 ng/mL and 5.91 ng/mL, the Concentration (Supplementary Figure 6a, p.o., Time 0.167 h, individual replicates) is reported as 36.6 ng/mL and 47.3 ng/mL and 12.7 ng/mL and the Concentration (Supplementary Figure 6a, p.o., Time 0.5 h, individual replicates) is reported as 11.6 ng/mL and 6.25 ng/mL. The Concentration (Supplementary Figure 6a, p.o., Time 1 h, individual replicates) was 8.93 ng/mL and 16.9 ng/mL and 5.41 ng/mL, the concentration at 0.167 h (female, CD-1, mouse, plasma, iv, 15 mg kg^−1, Concentration, Supplementary Figure 6a, Time 0.167 h, individual replicates) was 9.48 ng/mL and the concentration at 0.5 h (female, CD-1, mouse, plasma, iv, 15 mg kg^−1, Concentration, Time 0.5 h, individual animals, Supplementary Figure 12b) was 642 ng/mL. The concentration at 1 h (female, CD-1, mouse, plasma, iv, 15 mg kg^−1, Concentration, Time 1 h, individual animals, Supplementary Figure 12b) was 694 ng/mL, the concentration at 2 h (female, CD-1, mouse, plasma, iv, 15 mg kg^−1, Concentration, Time 2 h, individual animals, Supplementary Figure 12b) was 122 ng/mL and the concentration at 4 h (female, CD-1, mouse, plasma, iv, 15 mg kg^−1, Concentration, Time 4 h, individual animals, Supplementary Figure 12b) was 36.6 ng/mL. The concentration at 7 h (female, CD-1, mouse, plasma, iv, 15 mg kg^−1, Concentration, Time 7 h, individual animals, Supplementary Figure 12b) was 23.1 ng/mL, the concentration at 16 h (female, CD-1, mouse, plasma, iv, 15 mg kg^−1, Concentration, Time 16 h, individual animals, Supplementary Figure 12b) was 1.67 ng/mL and the concentration at 24 h (female, CD-1, mouse, plasma, iv, 15 mg kg^−1, Concentration, Time 24 h, individual animals, Supplementary Figure 12b) was 3.48 ng/mL. The concentration at 0.5 h (female, CD-1, mouse, plasma, po, 400 mg kg^−1, Concentration, Supplementary Figure 6a, Time 0.5 h, individual replicates) was 8.5 ng/mL, the concentration at 2 h (female, CD-1, mouse, plasma, po, 400 mg kg^−1, Concentration, Supplementary Figure 6a, Time 2 h, individual replicates) was 3.37 ng/mL and the Concentration (i.v., Time 0.167 h, individual animals, Supplementary Figure 12b) was 6980 ng/mL and 3600 ng/mL and 9800 ng/mL. The Concentration (i.v., Time 0.5 h, individual animals, Supplementary Figure 12b) was 950 ng/mL and 1228 ng/mL, the Concentration (i.v., Time 1 h, individual animals, Supplementary Figure 12b) was 1082 ng/mL and the Concentration (i.v., Time 2 h, individual animals, Supplementary Figure 12b) was 115.8 ng/mL and 191 ng/mL. For the same molecule, the Concentration (i.v., Time 4 h, individual animals, Supplementary Figure 12b) was 46.7 ng/mL and 58.4 ng/mL, the Concentration (i.v., Time 7 h, individual animals, Supplementary Figure 12b) was 33.2 ng/mL and 30.9 ng/mL and the Concentration (i.v., Time 16 h, individual animals, Supplementary Figure 12b) was 1.98 ng/mL. The Concentration (i.v., Time 24 h, individual animals, Supplementary Figure 12b) was 2.84 ng/mL and 3.15 ng/mL, the Concentration (p.o., Time 0.167 h, individual animals, Supplementary Figure 12b) was 470 ng/mL and 532 ng/mL and 956 ng/mL and the Concentration (p.o., Time 0.5 h, individual animals, Supplementary Figure 12b) was 3100 ng/mL and 1908 ng/mL and 6600 ng/mL. The Concentration (p.o., Time 1 h, individual animals, Supplementary Figure 12b) was 1430 ng/mL and 460 ng/mL and 669 ng/mL, the Concentration (p.o., Time 2 h, individual animals, Supplementary Figure 12b) was 1190 ng/mL and 582 ng/mL and 3880 ng/mL and the Concentration (p.o., Time 4 h, individual animals, Supplementary Figure 12b) was 221 ng/mL and 348 ng/mL and 1410 ng/mL. For the same molecule, the Concentration (p.o., Time 7 h, individual animals, Supplementary Figure 12b) was 1250 ng/mL and 340 ng/mL and 726 ng/mL, the Concentration (p.o., Time 16 h, individual animals, Supplementary Figure 12b) was 461 ng/mL and 352 ng/mL and 189 ng/mL and the Concentration (p.o., Time 24 h, individual animals, Supplementary Figure 12b) was 55.8 ng/mL and 114 ng/mL and 252 ng/mL.
